Tested on: primary cultured cells of myotubes derived from the DMRV model mice
Assay: Amount of NeuAc by HPLC in myotubes from DMRV model mice
Type: cell-based
Conditions: 10 mM ManNAc, three days; compared with control group (10 mM Glc)
Method: The skeletal muscle tissues collected from the DMRV human patients or the model mice were lightly washed with PBS or Hank's balanced saline and were treated with 0.25% trypsin for 5 minutes. The tissues were finely cut into several millimeters with ophthalmic scissors, were digested with 0.4% collagenase II/0.25% trypsin at 37° C. for 30 minutes, and were left still to collect supernatant. The precipitate was again treated with the enzyme liquid. After being left still, the precipitate was well suspended in a DMEM-Ham's F-12 culture medium. The tissue suspension was passed through a nylon mesh to remove the tissues. The washings and the supernatant were centrifuged to collect cells. […]
In the case that the sample was cultured cells, the cells were washed with PBS three times, and 400 p. […] The fluorescent derivative thus prepared was analyzed with HPLC (JASCO Corp.) using 0.05 to 5 nmol/μl Neu5Ac and Neu5Gc standards. The amount of protein from the tissue was measured with a Bio-Rad Protein Assay kit (Bio-Rad Laboratories).
ManNAc or Ac5GlcNAcol was added to the culture media of primary cultured cells of myotubes derived from the DMRV model mice such that the final concentration of ManNAc was 10 mM and the final concentration of Ac5GlcNAcol was […]. […] The amount of NeuAc in the cultured cells was measured by the HPLC method described above (N=3).

## CC(=O)N[C@@H]1C(O)O[C@H](CO)[C@@H](O)[C@@H]1O (stereo partly shown) [ManNAc, N-acetylmannosamine, reference compound]
  amount of NeuAc in the myotubes: increased the amount of NeuAc

Source: patent publication US20120264928A1, “THERAPEUTIC PHARMACEUTICAL AGENT FOR DISEASES ASSOCIATED WITH DECREASE IN FUNCTION OF GNE PROTEIN, FOOD COMPOSITION, AND FOOD ADDITIVE” (JAPAN HEALTH SCIENCES FOUNDATION, priority 2009, published 2012)
